According to ChEMBL document CHEMBL1133302, “Use of proline bioisosteres in potential HIV protease inhibitors: phenylalanine-2-thiophenoxy-3-pyrrolidinone: synthesis and anti-HIV evaluation” (Bioorg Med Chem Lett, 2000):

Experiments:
[1] = Selective index is the ratio of CC50 to that of EC50 (CC50/EC50); format: functional
[2] = test system: MT4; experiment: EC50 value was measured as concentration required to inhibit syncytia formation by 50% in MT-4 cells.; format: functional, cell-based; settings: Homo sapiens
[3] = test system: MT4; experiment: CC50 value was measured as concentration required to cause 50% death of uninfected MT-4 cells.; format: functional; settings: Homo sapiens
[4] = molecular target: T1, Human immunodeficiency virus type 1 protease (Human immunodeficiency virus 1, UniProt Q72874); experiment: Compound was evaluated for the inhibition of HIV-1 protease
[5] = test system: MT4; experiment: EC50 value was measured as concentration required to inhibit syncytia formation by 50% in MT-4 cells; NA-Nonactive at nontoxic concentration; format: functional, cell-based, Homo sapiens
[6] = molecular target: T1, Human immunodeficiency virus type 1 protease; experiment: Compound was evaluated for the inhibition of HIV-1 protease; NA-Nonactive at nontoxic concentration

| SMILES | SI [1] | EC50 [2] | CC50 [3] | IC50 [4] | EC50 [5] | IC50 [6] |
| --- | --- | --- | --- | --- | --- | --- |
| O=C(N[C@@H](Cc1ccccc1)C(=O)N1CCC(=O)C1Sc1ccccc1)c1cccnc1 (some centres undefined) | 50 | 1 µM | 50 µM | 0.1 µM | – | – |
| CC(C)(C)OC(=O)N[C@@H](Cc1ccc(OCc2ccccc2)cc1)C(=O)N1CCC(=O)[C@@H]1Sc1ccccc1 | – | – | 10 µM | 0.02 µM | Not Active | – |
| CC(C)(C)OC(=O)N[C@@H](Cc1ccccc1)C(=O)N1CCC(=O)[C@@H]1Sc1ccccc1 | 2 | 50 µM | 100 µM | 1 µM | – | – |
| CC(C)(C)OC(=O)N[C@@H](Cc1ccc(O)cc1)C(=O)N1CCC(=O)[C@@H]1Sc1ccccc1 | > 2 | 50 µM | > 100 µM | 0.025 µM | – | – |
| CC(C)(C)OC(=O)N[C@@H](Cc1ccc(OCc2ccccc2)cc1)C(=O)N1CCC(=O)[C@H]1Sc1ccccc1 | 500 | 0.1 µM | 50 µM | 0.02 µM | – | – |
| COc1ccc(C[C@H](NC(=O)OC(C)(C)C)C(=O)N2CCC(=O)[C@H]2Sc2ccccc2)cc1 | – | – | 50 µM | 10 µM | Not Active | – |
| CC(C)(C)OC(=O)N[C@@H](Cc1ccc(O)cc1)C(=O)N1CCC(=O)[C@H]1Sc1ccccc1 | 500 | 0.1 µM | 50 µM | 0.026 µM | – | – |
| COc1ccc(C[C@H](NC(=O)OC(C)(C)C)C(=O)N2CCC(=O)[C@@H]2Sc2ccccc2)cc1 | – | – | > 100 µM | 10 µM | Not Active | – |
| CC(C)(C)OC(=O)NC(Cc1ccccc1)C(=O)N1CCC(=O)C1Sc1ccccc1 (racemic) | – | – | > 100 µM | – | Not Active | Not Active |
| O=C(N[C@@H](Cc1ccccc1)C(=O)N1CCC(=O)C1Sc1ccccc1)c1ccc2ccccc2n1 (some centres undefined) | – | – | 50 µM | 5 µM | Not Active | – |
| CC(C)(C)OC(=O)N[C@@H](Cc1ccccc1)C(=O)N1CCC(=O)[C@H]1Sc1ccccc1 | > 100 | 1 µM | > 100 µM | 0.008 µM | – | – |
